# Earlier results in patent US11730747B2, “Drink product and use thereof” (HYGIA PHARMACEUTICALS, LLC, priority 2013, dated 2023).
# Experiments:
# [1] = system: human colon cancer cell lines
# PC-3 = PC-3 cells
# JB6 cells = conditions: IP6 0.5-2 mM, three-dimensional growth in soft agar
# large intestinal cancer = conditions: rats; treatment begun 5 months after carcinogenic induction with azoxymethane
# pulmonary adenomas = conditions: diet containing 3% myo-inositol, fed beginning 1 week after exposure to benzo[a]pyrene
# PI3K = conditions: lung adenocarcinoma cell line
# bronchial dysplasia = conditions: smokers
levels of integrin linked kinase 1 (ILK1) and cyclin D1 (PC-3),phosphorylation levels of the p85 subunit of PI3K at Tyr458 and phosphoinositide-dependent kinase-1 at Ser241 (PC-3),SMILES,growth of human colon cancer cell lines in vitro [1],levels of phosphorylated AKT and GSK3α/β (PC-3),inhibition of EGF or TPA-induced cell transformation (JB6 cells),large intestinal cancers (large intestinal cancer),reduction of the number of pulmonary adenomas (pulmonary adenomas) [%],PI3K activity (PI3K),EC50 (PI3K; read-out: median effective concentration (ECs) for PI3K inhibition) [nM],reduction in the systolic and diastolic blood pressures (average) (bronchial dysplasia; 18 grams per day for 3 months) [mm Hg],"rate of regression of preexisting dysplastic lesions (bronchial dysplasia; 18 grams per day for 3 months, versus 48%, P=0.014) [%]","maximum tolerated dose (bronchial dysplasia; oral administration, dose escalation study for one month) [grams per day]",side effects (bronchial dysplasia; oral myo-inositol)
strong decrease,reduced phosphorylation levels,"O=P(O)(O)O[C@H]1[C@H](OP(=O)(O)O)[C@@H](OP(=O)(O)O)[C@H](OP(=O)(O)O)[C@@H](OP(=O)(O)O)[C@H]1OP(=O)(O)O [IP6, inositol-1,2,3,4,5,6-hexakisphosphate]",inhibits growth,reduced levels,dose-dependent inhibition,significantly (p=0.02) reducing,,,,,,,
,,O[C@H]1[C@H](O)[C@@H](O)[C@H](O)[C@@H](O)[C@H]1O [myoinositol],,,,,40,dose-dependent decreases,73,10,91,18,mild and mainly gastrointestinal in nature
